Assays:
[1] = tested on: primary MM cells in patient bone marrow aspirate MNC cultures; assay: Myeloma drug sensitivity testing (My-DST): ex vivo 48 h culture of patient bone marrow MNCs, flow cytometry of surviving MM cells
From the text: Extra bone marrow aspirate was collected from patients at University of Colorado Blood Cancer and Bone Marrow Transplant Program after informed consent. Samples from patients with multiple myeloma or smoldering myeloma were obtained from the hematologic malignancies tissue bank with protocol approval from the Western Institutional Review Board. MNCs were isolated from the samples using SepMate Ficoll-Plaque tubes (StemCell Technologies). Normal donor samples were purchased from AllCells. Selection of CD138^+ cells was performed with magnetic bead columns (Miltenyi), only where specifically noted.
(§1) De-identified primary myeloma samples were thawed and incubated with 100 μg DNase I (Sigma-Aldrich). Samples were washed twice with 10 mL Dulbecco's Phosphate Buffered Saline (DPBS) without calcium and magnesium. Cells were resuspended in RPMI1640 medium containing L-glutamine with 10% FBS and 100 U/mL penicillin and 100 μg/mL streptomycin (Thermo Fisher Scientific) and 2 ng/mL IL-6 (PeproTech) at 37° C. for 2 hours. Cells were then transferred to 96-well plates at 4.5×10^5 cells/mL (90,000 MNCs per well) and drug treated for 48 hours. PIs, IMiDs and Dex were purchased from Thermo Fisher. […] Stock drug solutions were prepared at 10 mM in DMSO and stored at −20° C. until use. Dara was obtained from University of Colorado Health Pharmacy. Clodronate-liposomes were purchased from Encapsula Nanosciences to block macrophage activity.
(§2) After 48-hour treatment primary samples were washed in 1× cold DPBS and re-suspended in BD Brilliant Stain Buffer (BD Biosciences) in a 96-well v-bottom plate. Cells were treated with FcR Blocking Reagent (Miltenyi Biotec) for 5 minutes and then surface stained with the antibodies anti-CD19-BV786, anti-CD45-BV510, monoclonal anti-CD38-BV421 or multi-epitope anti-CD38-FITC (ALPCO), anti-CD138-BV421 and anti-CD319-APC or anti-CD46 conjugated to Alexa647 with the Antibody Labeling Kit (In Vitrogen). Intracellular staining with anti-kappa-BV605 and anti-lambda-PE light chains was performed after paraformaldehyde fixation and permeabilization. All antibodies were purchased from BD Biosciences, except as noted. After staining, samples were washed with 100 μl DPBS containing 2% FBS (FACS buffer) and re-suspended in 250 μL. Viability staining was done using the LIVE/DEAD Fixable Near-IR Kit (Invitrogen, Carlsbad Calif.). Flow cytometry data was collected using a FACSCelesta (BD) equipped with a high throughput sampler (FITS). For each well a fixed volume of 175 μL was collected by the HTS. Data analysis was completed using FlowJo software.
To profile response to the agents commonly used in clinic, patient samples were initially screened with a panel including bortezomib (Bor), carfilzomib (Car), lenalidomide (Len), pomalidomide (Pom), Dex and Cy (tested as its active metabolite “4-HC”). MNCs are cultured for 48 hours, followed by flow cytometry to measure the surviving MM cell population. To accurately measure the MM cells on a sample-by-sample basis, cells were labeled for surface expression of CD138, CD38, CD45, CD19, CD319 and CD46. […] In parallel, intracellular flow cytometry for kappa and lambda was used to verify the clonality and individualize the MM population gating (FIG. 1F).
For rapid screening, single concentrations of each drug were sought that produce an expected decrease in MM cell viability by which to judge sensitivity versus resistance. This was started by establishing the dose response to each drug under the above conditions. Each condition was performed in triplicate and normalized compared to untreated control.

[2] = tested on: non-plasma cells (NPCs) negative for CD138 and CD38; conditions: 48 h; for viability of nonplasma cells (NPCs) in the cultures: patient samples (FIG. 2A, 7E)
Method: as §1
as §2, with “software. […]” for “software.”

[3] = tested on: nonmalignant plasma cells from normal donor bone marrow; assay: My-DST quality control: normal donor bone marrow aspirates, nonmalignant plasma cells; type: cell-based, human; conditions: 48 h (FIG. 2B, 7F)
From the text: Normal donor samples were purchased from AllCells.
PIs, IMiDs and Dex were purchased from Thermo Fisher. […] Dara was obtained from University of Colorado Health Pharmacy.
Data analysis was completed using FlowJo software.

[4] = patient 614, with progression of disease (FIG. 5D)

## O=P1(N(CCCl)CCCl)NCCCO1 (stereo not shown) [C, cyclophosphamide]
[1]; 48 h, representative patient sample
  viability of MM cells compared to untreated controls (FIG. 1G): reduced viable MM cells
[1]; FIGS. 8C-8F
  EV sensitivity in samples from patients with prior clinical exposure versus naïve: unchanged
[1]; patient 634, multiple relapse time points (FIG. 5E)
  change of ex vivo drug sensitivity between biopsies at multiple time points: remained IMiD and cyclophosphamide resistant
[1]; patient 646 (FIG. 5F)
  change of ex vivo drug sensitivity between biopsies at multiple time points: surprising re-sensitization
[1]; patient 700 (FIG. 5C)
  change of ex vivo drug sensitivity between biopsies at multiple time points: increased sensitivity
[2]
  nonspecific cytotoxicity on the bulk MNC population (FIG. 1G): sometimes showed nonspecific cytotoxicity
  viability of nonplasma cells (NPCs) in the cultures: occasional exception

## CC(C)C[C@H](NC(=O)[C@H](CCc1ccccc1)NC(=O)CN1CCOCC1)C(=O)N[C@@H](Cc1ccccc1)C(=O)N[C@@H](CC(C)C)C(=O)[C@@]1(C)CO1 [Car, carfilzomib]
[1]; [4]
  change of ex vivo drug sensitivity between biopsies at multiple time points: significantly increased drug resistance

## Nc1cccc2c1CN(C1CCC(=O)NC1=O)C2=O (stereo not shown) [R, lenalidomide]
[1]; [4]
  change of ex vivo drug sensitivity between biopsies at multiple time points: significantly increased drug resistance
[1]; patient 700 (FIG. 5C)
  change of ex vivo drug sensitivity between biopsies at multiple time points: significantly increased drug resistance

## CC(C)C[C@H](NC(=O)[C@H](Cc1ccccc1)NC(=O)c1cnccn1)B(O)O [V, bortezomib]
[1]; patient 646 (FIG. 5F)
  change of ex vivo drug sensitivity between biopsies at multiple time points: lost isolated bortezomib sensitivity

## IL-6: interleukin-6, cytokine added to the culture, 2 ng/mL
[1]; ex vivo supplementation of culture
  MM cell viability loss in culture on IL-6 addition (FIG. 1B): attenuated MM cell viability loss in culture for some patient samples

## daratumumab
[1]; 20 nM, Dara-exposed patients (FIG. 6C)
  ex vivo response in samples from patients who had recently received Dara: ex vivo resistance was evident
[1]; 20 nM, Dara-naïve patients (FIG. 6C)
  ex vivo activity, newly diagnosed versus relapsed samples: very similar activity
[1]; 20 nM, P=0.003 (FIG. 6D)
  ex vivo sensitivity in naïve patients compared to those with prior exposure: significantly lower
[1]; 3/3 Dara-sensitive samples (FIG. 7D)
  ex vivo activity after addition of clodronate-containing liposomes (macrophage deactivation): partially blocked
[1]; 48 hours ex vivo culture
  dose response of viable MM cells (FIG. 6A): dose dependent reduction in viable MM cells
[2]
  viability of nonplasma cells (NPCs) in the cultures: did not affect the viability
[3]
  viability of plasma cells from BM aspirates from normal donors: did not substantially reduce viability

— US20220003750A1, “FUNCTIONAL SCREEN FOR SMALL MOLECULE AND MONOCLONAL ANTIBODY DRUG SENSITIVITY IN MULTIPLE MYELOMA PATIENTS” (The Regents of the University of Colorado, a body corporate, priority 2018, published 2022)
